US12077503B2, “Substituted cyclic amides and their use as herbicides” (FMC CORPORATION, priority 2015, dated 2024)

Tests used:
Type in all cases: in vivo
[1] = tested on: pigweed (Amaranthus retroflexus); experiment: Test A preemergence; conditions: Amaranthus retroflexus, pre-emergence, 240 h, 0 to 100 scale where 0 is no effect and 100 is complete control, read-out: Pigweed plant response rating
[2] = tested on: ragweed (common ragweed, Ambrosia elatior); experiment: Test A preemergence; conditions: Ambrosia artemisiifolia, pre-emergence, 240 h, 0 to 100 scale where 0 is no effect and 100 is complete control, read-out: Ragweed plant response rating
Method in brief: (§1)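 Preemergence soil spray on seeded pots or post-emergence spray on 1–2 leaf plants, in loam–sand blend. Greenhouse ~10 d. Visual rating 0–100 against untreated plants.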

[3] = tested on: barnyardgrass (Echinochloa crus-galli); experiment: Test A preemergence; conditions: Echinochloa crus-galli, pre-emergence, 240 h, 0 to 100 scale where 0 is no effect and 100 is complete control, read-out: Barnyardgrass plant response rating
Method in brief: as §1

Kochia (Kochia scoparia) [4] = experiment: Test A preemergence; conditions: Bassia scoparia, pre-emergence, 240 h, 0 to 100 scale where 0 is no effect and 100 is complete control, read-out: Kochia plant response rating
Method in brief: as §1

[5] = tested on: ryegrass, Italian (Italian ryegrass, Lolium multiflorum); experiment: Test A preemergence; conditions: Lolium multiflorum, pre-emergence, 240 h, 0 to 100 scale where 0 is no effect and 100 is complete control, read-out: Ryegrass, Italian plant response rating
Method in brief: as §1

[6] = tested on: giant foxtail (Setaria faberii); experiment: Test A preemergence; conditions: Setaria faberi, pre-emergence, 240 h, 0 to 100 scale where 0 is no effect and 100 is complete control, read-out: Foxtail, Giant plant response rating
Method in brief: as §1

[7] = tested on: ducksalad (Heteranthera limosa); experiment: Test B flooded paddy test; conditions: Heteranthera limosa, 250 g ai/ha, Flood; 0 to 100 scale where 0 is no effect and 100 is complete control; read-out: Ducksalad plant response rating
Method in brief: (§2)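 Compound goes directly into floodwater once pots are flooded 3 cm above soil, targeting plants at two leaves; the water depth is then held for the test duration. Plants sit 13–15 d in a greenhouse and are rated visually, 100 denoting complete control.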

[8] = tested on: barnyardgrass (Echinochloa crus-galli); experiment: Test B flooded paddy test; conditions: Echinochloa crus-galli, 250 g ai/ha, Flood; 0 to 100 scale where 0 is no effect and 100 is complete control; read-out: Barnyardgrass plant response rating
Method in brief: as §2

rice (Oryra sativa) = experiment: Test B flooded paddy test; conditions: Oryza sativa, 250 g ai/ha, Flood; 0 to 100 scale where 0 is no effect and 100 is complete control; read-out: Rice plant response rating
Method in brief: as §2

[9] = tested on: sedge, umbrella (small-flower umbrella sedge, Cyperus difformis); experiment: Test B flooded paddy test; conditions: Cyperus difformis, 250 g ai/ha, Flood; 0 to 100 scale where 0 is no effect and 100 is complete control; read-out: Sedge, Umbrella plant response rating
Method in brief: as §2

corn (Zea mays) = experiment: Test A postemergence; conditions: Zea mays, post-emergence, 240 h
Method in brief: as §1

[10] = tested on: blackgrass (Alopecurus myosuroides); experiment: Test A postemergence; conditions: Alopecurus myosuroides, post-emergence, 240 h
Method in brief: as §1

[11] = tested on: pigweed (Amaranthus retroflexus); experiment: Test A postemergence; conditions: Amaranthus retroflexus, post-emergence, 240 h
Method in brief: as §1

[12] = tested on: ragweed (common ragweed, Ambrosia elatior); experiment: Test A postemergence; conditions: Ambrosia artemisiifolia, post-emergence, 240 h
Method in brief: as §1

[13] = tested on: barnyardgrass (Echinochloa crus-galli); experiment: Test A postemergence; conditions: Echinochloa crus-galli, post-emergence, 240 h
Method in brief: as §1

Kochia (Kochia scoparia) [14] = experiment: Test A postemergence; conditions: Bassia scoparia, post-emergence, 240 h
Method in brief: as §1

[15] = tested on: ryegrass, Italian (Italian ryegrass, Lolium multiflorum); experiment: Test A postemergence; conditions: Lolium multiflorum, post-emergence, 240 h
Method in brief: as §1

[16] = tested on: wheat (Triticum aestivum); experiment: Test A postemergence; conditions: Triticum aestivum, post-emergence, 240 h
Method in brief: as §1

[17] = tested on: Galium (catchweed bedstraw, Galium aparine); experiment: Test A postemergence; conditions: Galium, post-emergence, 240 h
Method in brief: as §1

[18] = tested on: giant foxtail (Setaria faberii); experiment: Test A postemergence; conditions: Setaria faberi, post-emergence, 240 h
Method in brief: as §1

[19] = 125 g ai/ha, preemergence, approx. 10 d

For `CN1C[C@H](c2ccc(C(F)(F)F)nc2)[C@@](C)(C(=O)Nc2cccc(F)c2F)C1=O` [Compound 1109], the pest or weed control at 31 g/ha ([1]; 31 g ai/ha, Preemergence) was 70%, the pest or weed control at 125 g/ha [1, 19] was 90% and the pest or weed control at 31 g/ha ([2]; 31 g ai/ha, Preemergence) was 0%. The pest or weed control at 125 g/ha [2, 19] was 50%, the pest or weed control at 31 g/ha ([3]; 31 g ai/ha, Preemergence) was 100% and the pest or weed control at 125 g/ha [3, 19] was 100%. It also gave a pest or weed control at 31 g/ha (Kochia (Kochia scoparia) [4]; 31 g ai/ha, Preemergence) of 0%, a pest or weed control at 125 g/ha (Kochia (Kochia scoparia) [4]; [19]) of 70% and a pest or weed control at 31 g/ha ([5]; 31 g ai/ha, Preemergence) of 60%. For the same compound, the pest or weed control at 125 g/ha [5, 19] was 80%, the pest or weed control at 31 g/ha ([6]; 31 g ai/ha, Preemergence) was 100% and the pest or weed control at 125 g/ha [6, 19] was 100%. For the same compound, the pest or weed control at 250 g/ha [7] was 90%, the pest or weed control at 250 g/ha [8] was 85% and the pest or weed control at 250 g/ha (rice (Oryra sativa)) was 50%. For the same compound, the pest or weed control at 250 g/ha [9] was 0%, the plant injury at 125 g/ha (corn (Zea mays); 125 g ai/ha, postemergence, visual injury on 0 to 100 scale (0 no effect, 100 complete control), approx. 10 d, read-out: Corn plant response rating) was 80% and the Corn plant response rating (crop injury, 0 = no effect, 100 = complete kill) at 31 g/ha (corn (Zea mays); Postemergence, 31 g ai/ha, visual injury after approx. 10 d, 0 to 100 scale, 0 no effect, 100 complete control) was 40%. The pest or weed control at 125 g/ha ([10]; 125 g ai/ha, postemergence, visual injury on 0 to 100 scale (0 no effect, 100 complete control), approx. 10 d, read-out: Blackgrass plant response rating) was 40%, the pest or weed control at 31 g/ha ([10]; Postemergence, 31 g ai/ha, visual injury after approx. 10 d, 0 to 100 scale, 0 no effect, 100 complete control, read-out: Plant response rating, Blackgrass) was 20% and the pest or weed control at 125 g/ha ([11]; 125 g ai/ha, postemergence, visual injury on 0 to 100 scale (0 no effect, 100 complete control), approx. 10 d, read-out: Pigweed plant response rating) was 60%. For the same compound, the pest or weed control at 31 g/ha ([11]; Postemergence, 31 g ai/ha, visual injury after approx. 10 d, 0 to 100 scale, 0 no effect, 100 complete control, read-out: Plant response rating, Pigweed) was 20%, the pest or weed control at 125 g/ha ([12]; 125 g ai/ha, postemergence, visual injury on 0 to 100 scale (0 no effect, 100 complete control), approx. 10 d, read-out: Ragweed plant response rating) was 50% and the pest or weed control at 31 g/ha ([12]; Postemergence, 31 g ai/ha, visual injury after approx. 10 d, 0 to 100 scale, 0 no effect, 100 complete control, read-out: Plant response rating, Ragweed) was 0%. The pest or weed control at 125 g/ha ([13]; 125 g ai/ha, postemergence, visual injury on 0 to 100 scale (0 no effect, 100 complete control), approx. 10 d, read-out: Barnyardgrass plant response rating) was 100%, the pest or weed control at 31 g/ha ([13]; Postemergence, 31 g ai/ha, visual injury after approx. 10 d, 0 to 100 scale, 0 no effect, 100 complete control, read-out: Plant response rating, Barnyardgrass) was 90% and the pest or weed control at 125 g/ha (Kochia (Kochia scoparia) [14]; 125 g ai/ha, postemergence, visual injury on 0 to 100 scale (0 no effect, 100 complete control), approx. 10 d, read-out: Kochia plant response rating) was 70%. The pest or weed control at 31 g/ha (Kochia (Kochia scoparia) [14]; Postemergence, 31 g ai/ha, visual injury after approx. 10 d, 0 to 100 scale, 0 no effect, 100 complete control, read-out: Plant response rating, Kochia) was 20%, the pest or weed control at 125 g/ha ([15]; 125 g ai/ha, postemergence, visual injury on 0 to 100 scale (0 no effect, 100 complete control), approx. 10 d, read-out: Ryegrass, Italian plant response rating) was 50% and the pest or weed control at 31 g/ha ([15]; Postemergence, 31 g ai/ha, visual injury after approx. 10 d, 0 to 100 scale, 0 no effect, 100 complete control, read-out: Plant response rating, Ryegrass, Italian) was 0%. The plant injury at 125 g/ha ([16]; 125 g ai/ha, postemergence, visual injury on 0 to 100 scale (0 no effect, 100 complete control), approx. 10 d, read-out: Wheat plant response rating) was 60%, the plant injury at 31 g/ha ([16]; Postemergence, 31 g ai/ha, visual injury after approx. 10 d, 0 to 100 scale, 0 no effect, 100 complete control, read-out: Plant response rating, Wheat) was 30% and the pest or weed control at 125 g/ha ([17]; 125 g ai/ha, postemergence, visual injury on 0 to 100 scale (0 no effect, 100 complete control), approx. 10 d, read-out: Galium plant response rating) was 50%. It also gave a pest or weed control at 31 g/ha ([17]; Postemergence, 31 g ai/ha, visual injury after approx. 10 d, 0 to 100 scale, 0 no effect, 100 complete control, read-out: Plant response rating, Galium) of 30%, a pest or weed control at 125 g/ha ([18]; 125 g ai/ha, postemergence, visual injury on 0 to 100 scale (0 no effect, 100 complete control), approx. 10 d, read-out: Foxtail, Giant plant response rating) of 90% and a pest or weed control at 31 g/ha ([18]; Postemergence, 31 g ai/ha, visual injury after approx. 10 d, 0 to 100 scale, 0 no effect, 100 complete control, read-out: Plant response rating, Foxtail, Giant) of 70%.
